The values below come from PMC10661964 (Current Drug Metabolism, 2023).

Holding throughout (type): in vitro ADME
For data set [1], the system named is human CYP enzymes (all isoforms tested). Description: CYP inhibition, all isoforms tested (summary). The following applies: reversible and irreversible. From the text:
(§1) The inhibition of cytochrome P450 (CYP) isoforms and a range of cellular transporters (except multidrug and toxin extrusion [MATE] proteins), as well as the induction of CYP isoforms were investigated using previously described methods.

Another data set deals with CYP 3A4 (Homo sapiens, UniProt P08684). Description: CYP inhibition with probe substrates.
Source text: as §1

In another data set the target is CYP 2C9 (Homo sapiens, UniProt P11712). Description: CYP inhibition with probe substrate. The following applies: probe substrate diclofenac.
Source text: as §1

In another data set the target is CYP 2E1 (Homo sapiens, UniProt P05181). Description: CYP inhibition with probe substrate. The following applies: coincubation, probe substrate chlorzoxazone; read-out: Co- IC50.
Source text: as §1

Another data set has as its target T1, CYP 2B6 (Homo sapiens, UniProt P20813).
T1 sequence (P20813 1-491): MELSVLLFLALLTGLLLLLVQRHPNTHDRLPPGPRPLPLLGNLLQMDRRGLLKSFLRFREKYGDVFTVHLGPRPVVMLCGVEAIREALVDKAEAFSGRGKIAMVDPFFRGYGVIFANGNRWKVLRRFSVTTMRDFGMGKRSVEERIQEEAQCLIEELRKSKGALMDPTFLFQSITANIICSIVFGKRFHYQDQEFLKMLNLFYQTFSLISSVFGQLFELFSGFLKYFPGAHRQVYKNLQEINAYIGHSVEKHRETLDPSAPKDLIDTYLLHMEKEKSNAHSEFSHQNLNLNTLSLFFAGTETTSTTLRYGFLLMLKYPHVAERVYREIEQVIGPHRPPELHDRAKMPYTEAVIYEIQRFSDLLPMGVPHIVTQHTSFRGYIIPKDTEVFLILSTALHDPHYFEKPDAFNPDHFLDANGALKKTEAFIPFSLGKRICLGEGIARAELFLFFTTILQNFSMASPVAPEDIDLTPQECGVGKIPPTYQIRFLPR
Description: CYP inhibition with probe substrate. The following applies: probe substrate bupropion.
Source text: as §1

The target in another data set is T2, CYP 1A2 (Homo sapiens, UniProt P05177).
T2 sequence (P05177 1-516): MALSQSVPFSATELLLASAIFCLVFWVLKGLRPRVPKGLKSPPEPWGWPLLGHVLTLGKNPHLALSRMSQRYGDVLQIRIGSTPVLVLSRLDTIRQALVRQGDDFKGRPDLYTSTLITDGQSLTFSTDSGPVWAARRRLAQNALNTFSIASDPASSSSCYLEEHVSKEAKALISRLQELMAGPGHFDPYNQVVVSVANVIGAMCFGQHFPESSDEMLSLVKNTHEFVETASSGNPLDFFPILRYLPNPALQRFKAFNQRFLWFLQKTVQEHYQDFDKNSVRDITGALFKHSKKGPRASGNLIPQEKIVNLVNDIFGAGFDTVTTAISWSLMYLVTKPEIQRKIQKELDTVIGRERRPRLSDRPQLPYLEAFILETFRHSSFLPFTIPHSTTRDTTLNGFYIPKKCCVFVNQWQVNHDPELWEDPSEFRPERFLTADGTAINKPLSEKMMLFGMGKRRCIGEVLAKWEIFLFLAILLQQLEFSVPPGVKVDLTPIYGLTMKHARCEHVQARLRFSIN
The data set is described as follows: CYP inhibition with probe substrate. As to conditions: probe substrate phenacetin.
Source text: as §1

Another data set concerns the target T3, CYP 2A6 (Homo sapiens, UniProt P11509).
T3 sequence (P11509 1-494): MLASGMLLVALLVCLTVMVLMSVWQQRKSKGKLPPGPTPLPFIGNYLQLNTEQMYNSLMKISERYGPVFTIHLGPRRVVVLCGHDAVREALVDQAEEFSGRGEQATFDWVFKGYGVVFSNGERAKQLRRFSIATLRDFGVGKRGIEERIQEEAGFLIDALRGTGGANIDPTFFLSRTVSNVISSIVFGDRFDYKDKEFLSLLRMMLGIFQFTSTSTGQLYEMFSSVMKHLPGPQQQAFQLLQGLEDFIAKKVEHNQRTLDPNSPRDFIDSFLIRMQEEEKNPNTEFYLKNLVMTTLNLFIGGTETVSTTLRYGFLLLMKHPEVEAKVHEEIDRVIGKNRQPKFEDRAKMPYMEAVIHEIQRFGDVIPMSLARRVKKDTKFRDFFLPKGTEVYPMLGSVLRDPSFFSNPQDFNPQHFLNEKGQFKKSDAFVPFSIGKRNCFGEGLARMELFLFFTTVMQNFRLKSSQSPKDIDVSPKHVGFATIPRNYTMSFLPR
Description: CYP inhibition with probe substrate. As to conditions: coincubation, probe substrate coumarin; read-out: Co- IC50.
Source text: as §1

The target in another data set is CYP 2D6 (Homo sapiens, UniProt P10635). Description: CYP inhibition with probe substrate. As to conditions: probe substrate dextromethorphan.
Source text: as §1

Setting [2] is: 3A4 (M), 30-min preincubation, probe substrate midazolam, read-out: Pre- IC50 (+ NADPH).
The mark [3] stands for this setting: 3A4 (M), coincubation, probe substrate midazolam, read-out: Co- IC50.
Setting [4] is: 3A4 (M), probe substrate midazolam.
Setting [5] is: 3A4 (T), 30-min preincubation, probe substrate testosterone, read-out: Pre- IC50 (+ NADPH).
The mark [6] stands for this setting: 3A4 (T), coincubation, probe substrate testosterone, read-out: Co- IC50.
Setting [7] is: 3A4 (T), probe substrate testosterone.
[8] abbreviates: 30-min preincubation, read-out: Pre- IC50 (+ NADPH).
Setting [9] is: coincubation, read-out: Co- IC50.

Like-named read-outs stand apart in the source and are kept apart here. Bounds are passed on as bounds.

CYP 2E1, sequence (P05181 whole entry): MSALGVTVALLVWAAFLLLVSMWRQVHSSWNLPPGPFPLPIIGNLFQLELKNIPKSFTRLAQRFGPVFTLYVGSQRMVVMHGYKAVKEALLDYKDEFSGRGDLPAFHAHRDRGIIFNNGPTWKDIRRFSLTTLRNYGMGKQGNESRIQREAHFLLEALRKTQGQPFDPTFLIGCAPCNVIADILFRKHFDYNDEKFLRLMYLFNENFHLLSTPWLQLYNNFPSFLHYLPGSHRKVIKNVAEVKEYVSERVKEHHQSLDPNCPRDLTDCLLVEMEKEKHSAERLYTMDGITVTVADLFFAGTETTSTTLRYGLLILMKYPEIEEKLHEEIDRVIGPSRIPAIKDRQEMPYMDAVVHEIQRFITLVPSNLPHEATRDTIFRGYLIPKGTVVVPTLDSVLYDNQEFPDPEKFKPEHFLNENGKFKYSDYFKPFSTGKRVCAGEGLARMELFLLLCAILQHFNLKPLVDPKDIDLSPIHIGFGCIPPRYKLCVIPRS
CYP 2C9, sequence (P11712 whole entry): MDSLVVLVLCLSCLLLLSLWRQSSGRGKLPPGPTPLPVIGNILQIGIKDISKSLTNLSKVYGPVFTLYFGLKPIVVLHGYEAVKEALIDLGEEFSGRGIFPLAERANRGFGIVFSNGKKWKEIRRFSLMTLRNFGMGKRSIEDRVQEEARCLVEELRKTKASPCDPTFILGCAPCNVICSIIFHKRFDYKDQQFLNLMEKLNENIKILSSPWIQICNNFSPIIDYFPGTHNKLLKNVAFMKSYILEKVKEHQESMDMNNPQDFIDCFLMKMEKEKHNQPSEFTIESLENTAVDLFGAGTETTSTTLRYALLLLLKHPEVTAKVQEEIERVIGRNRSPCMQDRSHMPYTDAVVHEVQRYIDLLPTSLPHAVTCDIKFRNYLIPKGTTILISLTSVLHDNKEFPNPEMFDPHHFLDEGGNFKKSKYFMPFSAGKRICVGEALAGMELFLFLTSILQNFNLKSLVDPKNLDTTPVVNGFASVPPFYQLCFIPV
CYP 3A4, sequence (P08684 whole entry): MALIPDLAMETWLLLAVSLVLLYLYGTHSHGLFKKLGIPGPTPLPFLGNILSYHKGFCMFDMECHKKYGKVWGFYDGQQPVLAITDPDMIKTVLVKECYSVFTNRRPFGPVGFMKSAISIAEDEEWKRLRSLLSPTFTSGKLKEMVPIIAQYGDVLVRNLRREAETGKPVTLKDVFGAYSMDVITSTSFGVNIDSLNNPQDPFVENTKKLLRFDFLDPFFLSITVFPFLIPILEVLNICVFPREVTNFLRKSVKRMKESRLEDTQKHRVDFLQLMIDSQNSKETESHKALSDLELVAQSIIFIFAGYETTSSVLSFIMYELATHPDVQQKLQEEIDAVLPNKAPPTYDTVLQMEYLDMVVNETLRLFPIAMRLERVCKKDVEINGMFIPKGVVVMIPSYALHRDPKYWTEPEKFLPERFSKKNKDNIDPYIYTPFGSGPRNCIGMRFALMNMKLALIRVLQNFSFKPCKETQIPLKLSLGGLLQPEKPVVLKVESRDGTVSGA
CYP 2D6, sequence (P10635 whole entry): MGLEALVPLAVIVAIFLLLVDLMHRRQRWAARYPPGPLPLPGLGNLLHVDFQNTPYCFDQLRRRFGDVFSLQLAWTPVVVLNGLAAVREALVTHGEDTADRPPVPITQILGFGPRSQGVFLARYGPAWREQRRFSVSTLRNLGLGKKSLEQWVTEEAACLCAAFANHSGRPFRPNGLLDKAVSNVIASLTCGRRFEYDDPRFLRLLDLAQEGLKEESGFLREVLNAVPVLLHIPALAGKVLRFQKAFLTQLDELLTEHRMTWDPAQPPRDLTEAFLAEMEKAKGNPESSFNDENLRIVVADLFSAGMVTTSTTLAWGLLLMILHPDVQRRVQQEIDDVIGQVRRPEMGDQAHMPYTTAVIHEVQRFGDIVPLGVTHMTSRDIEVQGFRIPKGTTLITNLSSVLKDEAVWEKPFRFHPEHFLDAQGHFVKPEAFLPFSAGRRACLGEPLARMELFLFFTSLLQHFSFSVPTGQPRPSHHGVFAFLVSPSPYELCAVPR

`CC1CS(=O)(=O)CCN1n1cc(SCC(N)C(=O)O)ccc1=O` (stereo not drawn) [M-4]: the IC50 was above 20 µM in data set [1]; above 2e-05 M at CYP 3A4 (setting [2]); above 2e-05 M at CYP 3A4 (setting [3]); above 2e-05 M at CYP 3A4 (setting [5]); above 2e-05 M at CYP 3A4 (setting [6]); above 20 µM at CYP 2C9 (setting [8]). In addition, the IC50 at CYP 2C9 (setting [9]), on CYP 2E1, on CYP 2B6 (setting [8]), on CYP 2B6 (setting [9]), at CYP 1A2 (setting [8]) and on CYP 1A2 (setting [9]) was above 20 µM each time. Further, the IC50 on CYP 2A6, at CYP 2D6 (setting [8]) and at CYP 2D6 (setting [9]) was above 20 µM each time. The “TDI (time-dependent inhibition)” value at CYP 3A4 (setting [4]), at CYP 3A4 (setting [7]), on CYP 2C9, at CYP 2B6, on CYP 1A2 and at CYP 2D6 was “No” throughout.

`CC1CS(=O)(=O)CCN1N` (stereo not drawn) [M-6]: the 50% inhibitory concentration (IC50) was above 100 µM in data set [1]; above 0.0001 M at CYP 3A4 (setting [2]); above 0.0001 M at CYP 3A4 (setting [3]); above 0.0001 M on CYP 3A4 (setting [5]); above 0.0001 M at CYP 3A4 (setting [6]); above 100 µM on CYP 2C9 (setting [8]). For the same compound, the half-inhibitory concentration (IC50) on CYP 2C9 (setting [9]), on CYP 2E1, on CYP 2B6 (setting [8]), on CYP 2B6 (setting [9]), at CYP 1A2 (setting [8]) and at CYP 1A2 (setting [9]) was above 100 µM throughout. In addition, the half-inhibitory concentration (IC50) on CYP 2A6, at CYP 2D6 (setting [8]) and at CYP 2D6 (setting [9]) was above 100 µM in each case. The “TDI (time-dependent inhibition)” value on CYP 3A4 (setting [4]), at CYP 3A4 (setting [7]), on CYP 2C9, at CYP 2B6, on CYP 1A2 and on CYP 2D6 was “No” throughout.

Turning to `CC1CS(=O)(=O)CCN1/N=C/c1ccc([N+](=O)[O-])o1` (stereo not drawn) [Nifurtimox, (E)-N-(3-methyl-1,1-dioxo-1,4-thiazinan-4-yl)-1-(5-nitrofuran-2-yl) methanimine, reference compound], the IC50 in data set [1] is above 50 µM; at CYP 3A4 (setting [2]) it was 4.8e-05 to 4.9e-05 M; on CYP 3A4 (setting [3]) it was above 5e-05 M; on CYP 3A4 (setting [5]) it was above 5e-05 M; at CYP 3A4 (setting [6]), above 5e-05 M; on CYP 2C9 (setting [8]) it was above 50 µM. The IC50 on CYP 2C9 (setting [9]), at CYP 2E1, at CYP 2B6 (setting [8]), at CYP 2B6 (setting [9]), at CYP 1A2 (setting [8]) and on CYP 1A2 (setting [9]) was above 50 µM throughout. Also, the half-inhibitory concentration (IC50) at CYP 2A6, on CYP 2D6 (setting [8]) and on CYP 2D6 (setting [9]) was above 50 µM throughout. For the same compound, the “TDI (time-dependent inhibition)” value at CYP 3A4 (setting [4]), at CYP 3A4 (setting [7]), at CYP 2C9, on CYP 2B6, at CYP 1A2 and at CYP 2D6 was “No” in each case.
